Reference: patent publication US9670227B2, “Thienopyrimidine derivatives, a process for their preparation and pharmaceutical compositions containing them” (LES LABORATOIRES SERVIER, priority 2013, dated 2017)

Tests used:
[1] = tested on: H929 multiple myeloma tumour line; assay: In vitro cytotoxicity, Microculture Tetrazolium Assay; assay type: cell-based; details: Homo sapiens, NCI-H929, 48 h, H929 cells, 48 hours exposure, MTT; read-out: IC50 (μM) MTT H929
Method: The cytotoxicity studies were carried out on the H929 multiple myeloma tumour line.
The cells are distributed onto microplates and exposed to the test compounds for 48 hours.

Mcl-1 protein = Mcl-1 protein (UniProtKB primary accession number: Q07820) (Homo sapiens, UniProt Q07820); assay: Inhibition of Mcl-1 by fluorescence polarisation, Method 1; assay type: binding; details: fluorescence polarisation test; Method 2 values are underlined in the patent (underlining not visible here); read-out: IC50 (M) Mcl-1 FP
Sequence of Mcl-1 protein (Q07820 whole entry): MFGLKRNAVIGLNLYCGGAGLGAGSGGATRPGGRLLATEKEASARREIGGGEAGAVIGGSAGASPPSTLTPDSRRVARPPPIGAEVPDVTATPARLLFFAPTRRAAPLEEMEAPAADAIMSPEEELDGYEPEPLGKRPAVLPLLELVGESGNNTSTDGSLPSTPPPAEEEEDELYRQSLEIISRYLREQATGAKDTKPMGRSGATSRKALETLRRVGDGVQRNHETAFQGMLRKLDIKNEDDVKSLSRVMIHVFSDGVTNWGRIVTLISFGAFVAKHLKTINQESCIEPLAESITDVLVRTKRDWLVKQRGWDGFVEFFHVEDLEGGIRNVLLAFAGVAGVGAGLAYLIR
Procedure, shortened: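 Buffer of 10 mM HEPES pH 7.4 with 150 mM NaCl and 0.05% Tween 20 held 5 nM Mcl-1 and 1 nM fluorescein-tagged ligand (final). Compounds were tested as 11-point serial dilutions at 5% final DMSO, and binding was read by FP.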

| SMILES | IC50 [1] [µM] | IC50 (Mcl-1 protein) [M] |
| --- | --- | --- |
| Cc1c(-c2c(-c3ccc(F)cc3)sc3ncnc(OC(Cc4ccccc4OCc4ccnn4CC4CCCCC4)C(=O)O)c23)ccc(OCCN2CCN(C)CC2)c1Cl [Example 80, (2R)-2-{[(5Sa)-5-{3-chloro-2-methyl-4-[2-(4-methylpiperazin-1-yl)ethoxy]phenyl}-6-(4-fluorophenyl)thieno[2,3-d]pyrimidin-4-yl]oxy}-3-(2-{[1-(cyclohexylmethyl)-1H-pyrazol-5-yl]methoxy}phenyl)propanoic acid] | 0.035 | 4.5e-09 |
| CCCn1nccc1COc1ccccc1CC(Oc1ncnc2sc(-c3ccc(F)cc3)c(-c3ccc(OCCN4CCN(C)CC4)c(Cl)c3C)c12)C(=O)O [Example 81, (2R)-2-{[(5Sa)-5-{3-chloro-2-methyl-4-[2-(4-methylpiperazin-1-yl)ethoxy]phenyl}-6-(4-fluorophenyl)thieno[2,3-d]pyrimidin-4-yl]oxy}-3-{2-[(1-propyl-1H-pyrazol-5-yl)methoxy]phenyl}propanoic acid] | 0.034 | 7.6e-09 |
| Cc1c(-c2c(-c3ccc(F)cc3)sc3ncnc(OC(Cc4ccccc4OCc4ccnn4CCC(C)C)C(=O)O)c23)ccc(OCCN2CCN(C)CC2)c1Cl [Example 82, (2R)-2-{[(5Sa)-5-{3-chloro-2-methyl-4-[2-(4-methylpiperazin-1-yl)ethoxy]phenyl}-6-(4-fluorophenyl)thieno[2,3-d]pyrimidin-4-yl]oxy}-3-(2-{[1-(3-methylbutyl)-1H-pyrazol-5-yl]methoxy}phenyl)propanoic acid] | 0.078 | 5.1e-09 |
| Cc1c(-c2c(-c3ccc(F)cc3)sc3ncnc(OC(Cc4ccccc4OCc4ccnn4CCCC(F)(F)F)C(=O)O)c23)ccc(OCCN2CCN(C)CC2)c1Cl [Example 84, (2R)-2-{[(5Sa)-5-{3-chloro-2-methyl-4-[2-(4-methylpiperazin-1-yl)ethoxy]phenyl}-6-(4-fluorophenyl)thieno[2,3-d]pyrimidin-4-yl]oxy}-3-(2-{[1-(4,4,4-trifluorobutyl)-1H-pyrazol-5-yl]methoxy}phenyl)propanoic acid] | 0.018 | 3.8e-09 |
| CCCCCn1nccc1COc1ccccc1CC(Oc1ncnc2sc(-c3ccc(F)cc3)c(-c3ccc(OCCN4CCN(C)CC4)c(Cl)c3C)c12)C(=O)O [Example 85, (2R)-2-{[(5Sa)-5-{3-chloro-2-methyl-4-[2-(4-methylpiperazin-1-yl)ethoxy]phenyl}-6-(4-fluorophenyl)thieno[2,3-d]pyrimidin-4-yl]oxy}-3-{2-[(1-pentyl-1H-pyrazol-5-yl)methoxy]phenyl}propanoic acid] | 0.063 | 3.6e-09 |
| COCCCn1nccc1COc1ccccc1CC(Oc1ncnc2sc(-c3ccc(F)cc3)c(-c3ccc(OCCN4CCN(C)CC4)c(Cl)c3C)c12)C(=O)O [Example 86, (2R)-2-{[(5Sa)-5-{3-chloro-2-methyl-4-[2-(4-methylpiperazin-1-yl)ethoxy]phenyl}-6-(4-fluorophenyl)thieno[2,3-d]pyrimidin-4-yl]oxy}-3-(2-{[1-(3-methoxypropyl)-1H-pyrazol-5-yl]methoxy}phenyl)propanoic acid] | 0.063 | 2.9e-09 |
| Cc1c(-c2c(-c3ccc(F)cc3)sc3ncnc(OC(Cc4ccccc4OCc4ccnn4CCN(C)C)C(=O)O)c23)ccc(OCCN2CCN(C)CC2)c1Cl [Example 87, (2R)-2-{[(5Sa)-5-{3-chloro-2-methyl-4-[2-(4-methylpiperazin-1-yl)ethoxy]phenyl}-6-(4-fluorophenyl)thieno[2,3-d]pyrimidin-4-yl]oxy}-3-[2-({1-[2-(dimethylamino)ethyl]-1H-pyrazol-5-yl}methoxy)phenyl]propanoic acid] | 0.274 | 7e-09 |
| COCCn1nccc1COc1ccccc1CC(Oc1ncnc2sc(-c3ccc(F)cc3)c(-c3ccc(OCCN4CCN(C)CC4)c(Cl)c3C)c12)C(=O)O [Example 88, (2R)-2-{[(5Sa)-5-{3-chloro-2-methyl-4-[2-(4-methylpiperazin-1-yl)ethoxy]phenyl}-6-(4-fluorophenyl)thieno[2,3-d]pyrimidin-4-yl]oxy}-3-(2-{[1-(2-methoxyethyl)-1H-pyrazol-5-yl]methoxy}phenyl)propanoic acid] | 0.062 | 4.2e-09 |
| CCOCCn1nccc1COc1ccccc1CC(Oc1ncnc2sc(-c3ccc(F)cc3)c(-c3ccc(OCCN4CCN(C)CC4)c(Cl)c3C)c12)C(=O)O [Example 89, (2R)-2-{[(5Sa)-5-{3-chloro-2-methyl-4-[2-(4-methylpiperazin-1-yl)ethoxy]phenyl}-6-(4-fluorophenyl)thieno[2,3-d]pyrimidin-4-yl]oxy}-3-(2-{[1-(2-ethoxyethyl)-1H-pyrazol-5-yl]methoxy}phenyl)propanoic acid] | 0.027 | 6.5e-09 |
| COCCOCCn1nccc1COc1ccccc1CC(Oc1ncnc2sc(-c3ccc(F)cc3)c(-c3ccc(OCCN4CCN(C)CC4)c(Cl)c3C)c12)C(=O)O [Example 90, (2R)-2-{[(5Sa)-5-{3-chloro-2-methyl-4-[2-(4-methylpiperazin-1-yl)ethoxy]phenyl}-6-(4-fluorophenyl)thieno[2,3-d]pyrimidin-4-yl]oxy}-3-[2-({1-[2-(2-methoxyethoxy)ethyl]-1H-pyrazol-5-yl}methoxy)phenyl]propanoic acid] | 0.058 | 3.2e-09 |
| Cc1c(-c2c(-c3ccc(F)cc3)sc3ncnc(OC(Cc4ccccc4OCc4cncnc4)C(=O)O)c23)ccc(OCCN2CCN(C)CC2)c1Cl [Example 93, (2R)-2-{[(5Sa)-5-{3-chloro-2-methyl-4-[2-(4-methylpiperazin-1-yl)ethoxy]phenyl}-6-(4-fluorophenyl)thieno[2,3-d]pyrimidin-4-yl]oxy}-3-[2-(pyrimidin-5-ylmethoxy)phenyl]propanoic acid] | 0.087 | 1.4e-08 |
| Cc1c(-c2c(-c3ccc(F)cc3)sc3ncnc(OC(Cc4ccccc4OCc4cnnn4-c4ccccc4)C(=O)O)c23)ccc(OCCN2CCN(C)CC2)c1Cl [Example 94, (2R)-2-{[(5Sa)-5-{3-chloro-2-methyl-4-[2-(4-methylpiperazin-1-yl)ethoxy]phenyl}-6-(4-fluorophenyl)thieno[2,3-d]pyrimidin-4-yl]oxy}-3-{2-[(1-phenyl-1H-1,2,3-triazol-5-yl)methoxy]phenyl}propanoic acid] | 0.085 | 1.9e-09 |
| COCCCn1nncc1COc1ccccc1CC(Oc1ncnc2sc(-c3ccc(F)cc3)c(-c3ccc(OCCN4CCN(C)CC4)c(Cl)c3C)c12)C(=O)O [Example 96, (2R)-2-{[(5Sa)-5-{3-chloro-2-methyl-4-[2-(4-methylpiperazin-1-yl)ethoxy]phenyl}-6-(4-fluorophenyl)thieno[2,3-d]pyrimidin-4-yl]oxy}-3-(2-{[1-(3-methoxypropyl)-1H-1,2,3-triazol-5-yl]methoxy}phenyl)propanoic acid] | 0.034 | 3.8e-09 |
| COCCn1nncc1COc1ccccc1CC(Oc1ncnc2sc(-c3ccc(F)cc3)c(-c3ccc(OCCN4CCN(C)CC4)c(Cl)c3C)c12)C(=O)O [Example 97, (2R)-2-{[(5Sa)-5-{3-chloro-2-methyl-4-[2-(4-methylpiperazin-1-yl)ethoxy]phenyl}-6-(4-fluorophenyl)thieno[2,3-d]pyrimidin-4-yl]oxy}-3-(2-{[1-(2-methoxyethyl)-1H-1,2,3-triazol-5-yl]methoxy}phenyl)propanoic acid] | 0.075 | 3.3e-09 |
| Cc1c(-c2c(-c3ccc(F)cc3)sc3ncnc(OC(Cc4ccccc4OCc4cocn4)C(=O)O)c23)ccc(OCCN2CCN(C)CC2)c1Cl [Example 98, (2R)-2-{[(5Sa)-5-{3-chloro-2-methyl-4-[2-(4-methylpiperazin-1-yl)ethoxy]phenyl}-6-(4-fluorophenyl)thieno[2,3-d]pyrimidin-4-yl]oxy}-3-[2-(1,3-oxazol-4-ylmethoxy)phenyl]propanoic acid] | 0.118 | 3.3e-07 |
| Cc1c(-c2c(-c3ccc(F)cc3)sc3ncnc(OC(Cc4ccccc4OCc4ncncc4Br)C(=O)O)c23)ccc(OCCN2CCN(C)CC2)c1Cl [Example 101, (2R)-3-{2-[(5-bromopyrimidin-4-yl)methoxy]phenyl}-2-{[(5Sa)-5-{3-chloro-2-methyl-4-[2-(4-methylpiperazin-1-yl)ethoxy]phenyl}-6-(4-fluorophenyl)thieno[2,3-d]pyrimidin-4-yl]oxy}propanoic acid] | 0.398 | 8e-09 |
| Cc1c(-c2c(-c3ccc(F)cc3)sc3ncnc(OC(Cc4ccccc4OCCF)C(=O)O)c23)ccc(OCCN2CCN(C)CC2)c1Cl [Example 103, (2R)-2-{[(5Sa)-5-{3-chloro-2-methyl-4-[2-(4-methylpiperazin-1-yl)ethoxy]phenyl}-6-(4-fluorophenyl)thieno[2,3-d]pyrimidin-4-yl]oxy}-3-[2-(2-fluoroethoxy)phenyl]propanoic acid] | 0.214 | 2.4e-08 |
| COCCOc1ccccc1CC(Oc1ncnc2sc(-c3ccc(F)cc3)c(-c3ccc(OCCN4CCN(C)CC4)c(Cl)c3C)c12)C(=O)O [Example 104, (2R)-2-{[(5Sa)-5-{3-chloro-2-methyl-4-[2-(4-methylpiperazin-1-yl)ethoxy]phenyl}-6-(4-fluorophenyl)thieno[2,3-d]pyrimidin-4-yl]oxy}-3-[2-(2-methoxyethoxy)phenyl]propanoic acid] | 0.386 | 7.5e-09 |
| COCCOCCOc1ccccc1CC(Oc1ncnc2sc(-c3ccc(F)cc3)c(-c3ccc(OCCN4CCN(C)CC4)c(Cl)c3C)c12)C(=O)O [Example 105, (2R)-2-{[(5Sa)-5-{3-chloro-2-methyl-4-[2-(4-methylpiperazin-1-yl)ethoxy]phenyl}-6-(4-fluorophenyl)thieno[2,3-d]pyrimidin-4-yl]oxy}-3-{2-[2-(2-methoxyethoxy)ethoxy]phenyl}propanoic acid] | 0.251 | 1.2e-08 |
